Laboratory results from ChEMBL document CHEMBL1201862, “PubChem BioAssay data set” (2004).
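1) Cells in 96-well plates. 2) Compound, 48 h, 5 concentrations. 3) Linear interpolation between surrounding doses. 4) Unreached endpoint = highest concentration. Here, GI50 denotes the concentration required for 50% inhibition of growth.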 Calls of active or inactive are those of the source. No stated cut-off is given here; in the data, active = GI50 up to about 1.1 µM and inactive = higher.

Key:
Assay in all cases: growth of human tumour cells (NCI), 48 h
[1] = tested on: M14
[2] = tested on: SK-MEL-5
[3] = tested on: NCI-H460
[4] = tested on: SF-539
[5] = tested on: HOP-92
[6] = tested on: KM-20L2
[7] = tested on: SK-MEL-28
[8] = tested on: A498
[9] = tested on: Malme-3M
[10] = tested on: SF-268
[11] = tested on: COLO 205
[12] = tested on: MOLT-4
[13] = tested on: K562
[14] = tested on: HCT-116
[15] = tested on: DMS-273
[16] = tested on: SNB-75
[17] = tested on: LXFL 529
[18] = tested on: MDA-N
[19] = tested on: MCF7
[20] = tested on: NCI/ADR-RES

| Structure (SMILES) | GI50 [1] | GI50 [2] | GI50 [3] | GI50 [4] | GI50 [5] | GI50 [6] | GI50 [7] | GI50 [8] | GI50 [9] | GI50 [10] | GI50 [11] | GI50 [12] | GI50 [13] | GI50 [14] | GI50 [15] | GI50 [16] | GI50 [17] | GI50 [18] | GI50 [19] | GI50 [20] |
| --- | --- | --- | --- | --- | --- | --- | --- | --- | --- | --- | --- | --- | --- | --- | --- | --- | --- | --- | --- | --- |
| CCc1cc2c(Nc3ccccc3)c3c(nc2s1)CCCC3 | > 100 µM (inactive) | 4.79 µM (inactive) | > 100 µM (inactive) | 43 µM (inactive) | 16.7 µM (inactive) | > 100 µM (inactive) | > 100 µM (inactive) | 25.8 µM (inactive) | > 100 µM (inactive) | 76.6 µM (inactive) | > 100 µM (inactive) | 3.23 µM (inactive) | 3.41 µM (inactive) | 9.35 µM (inactive) | > 100 µM (inactive) | 7.46 µM (inactive) | 14.2 µM (inactive) |  |  |  |
| Nc1cc2c3c(cccc3c1)C(=O)N(CCN1CCN(CCN3C(=O)c4cccc5cc(N)cc(c45)C3=O)CC1)C2=O | 98.9 µM (inactive) | > 100 µM (inactive) | 33.3 µM (inactive) | > 100 µM (inactive) | > 100 µM (inactive) | > 100 µM (inactive) | > 100 µM (inactive) | > 100 µM (inactive) | > 100 µM (inactive) | 91.2 µM (inactive) | > 100 µM (inactive) | 25.3 µM (inactive) | > 100 µM (inactive) | 67.6 µM (inactive) | > 100 µM (inactive) | > 100 µM (inactive) | 67 µM (inactive) |  |  |  |
| COc1cccc(-c2cc(=O)c3cc(C)c(C)c(C(=O)O)c3o2)c1 | > 100 µM (inactive) | > 100 µM (inactive) | > 100 µM (inactive) | > 100 µM (inactive) | > 100 µM (inactive) | > 100 µM (inactive) | > 100 µM (inactive) | > 100 µM (inactive) | > 100 µM (inactive) | > 100 µM (inactive) | > 100 µM (inactive) | > 100 µM (inactive) | > 100 µM (inactive) | > 100 µM (inactive) | > 100 µM (inactive) | 16.9 µM (inactive) | > 100 µM (inactive) |  |  |  |
| COC(=O)C(=O)C(C(=O)C(=O)Nc1ccccc1C(N)=O)c1nc2ccc([N+](=O)[O-])cc2nc1O (configuration not stated) | > 100 µM (inactive) | > 100 µM (inactive) | > 100 µM (inactive) | > 100 µM (inactive) | > 100 µM (inactive) | > 100 µM (inactive) | > 100 µM (inactive) | > 100 µM (inactive) | > 100 µM (inactive) | > 100 µM (inactive) | > 100 µM (inactive) | > 100 µM (inactive) | > 100 µM (inactive) | > 100 µM (inactive) | > 100 µM (inactive) | > 100 µM (inactive) | > 100 µM (inactive) |  |  |  |
| Cc1cc(Cl)ccc1Nc1nc2c(s1)C(=O)c1ccccc1C2=O | 0.948 µM (active) | 1.82 µM (inactive) | 3.32 µM (inactive) | 3.39 µM (inactive) | 13.9 µM (inactive) | 18.9 µM (inactive) | 1.98 µM (inactive) | 22.2 µM (inactive) | 1.45 µM (inactive) | 3.24 µM (inactive) | 4.33 µM (inactive) | 1.86 µM (inactive) | 2.41 µM (inactive) | 2.12 µM (inactive) | 2.52 µM (inactive) | 7.33 µM (inactive) | 3.67 µM (inactive) | 604 nM (active) | 1.87 µM (inactive) |  |
| CCC(C)SC1SCC2C(=O)N(C)C3(CC3C)C(=O)OCC(NC(=O)c3nc4ccccc4cc3O)C(=O)NC(C)C(=O)N(C)C1C(=O)N(C)C1(CC1C)C(=O)OCC(NC(=O)c1nc3ccccc3cc1O)C(=O)NC(C)C(=O)N2C (configuration not stated) | 0.000116 µM (active) |  | 4.82e-05 µM (active) | 4.79e-05 µM (active) | 5.87e-05 µM (active) | 0.000137 µM (active) |  | 0.000102 µM (active) | 4.12e-05 µM (active) | 4.81e-05 µM (active) | 5.01e-05 µM (active) | 0.000128 µM (active) | 2.77e-05 µM (active) |  | 2.3e-05 µM (active) | 2.93e-05 µM (active) | 3.1e-05 µM (active) | 0.0471 nM (active) | 1.2e-05 µM (active) | 33.1 nM (active) |
| Cc1ccc(S(=O)(=O)NC(=O)C2(Br)S(=O)(=O)OCCOS2(=O)=O)cc1 | > 100 µM (inactive) | > 100 µM (inactive) | > 100 µM (inactive) | > 100 µM (inactive) | > 100 µM (inactive) | > 100 µM (inactive) | > 100 µM (inactive) | > 100 µM (inactive) | > 100 µM (inactive) | > 100 µM (inactive) | > 100 µM (inactive) | > 100 µM (inactive) | > 100 µM (inactive) | > 100 µM (inactive) | > 100 µM (inactive) | > 100 µM (inactive) | > 100 µM (inactive) |  |  |  |
| COc1ccc(/C=C\c2cc(OC)c(OC)c(OC)c2)cc1OCC(=O)O | 3.79 µM (inactive) | 4.45 µM (inactive) | 4.43 µM (inactive) | 3.64 µM (inactive) | 9.89 µM (inactive) | > 100 µM (inactive) | 6.61 µM (inactive) | 31.1 µM (inactive) | 4.78 µM (inactive) | 10.9 µM (inactive) | > 100 µM (inactive) | 6.41 µM (inactive) | 3.68 µM (inactive) | 3.46 µM (inactive) | 6.22 µM (inactive) | 5.15 µM (inactive) | 6.55 µM (inactive) | 2150 nM (inactive) | 36.6 µM (inactive) | 2210 nM (inactive) |
| CC(=O)OC1CC2C(C)(C)OC(=O)CC(OC(C)=O)[C@]2(C)C2CCC3(C)C(=CCC3c3ccoc3)[C@]12C (some centres not stated) | 18.9 µM (inactive) | 21.4 µM (inactive) | 21.4 µM (inactive) | 26.8 µM (inactive) | 6.32 µM (inactive) | 28.1 µM (inactive) | 94.6 µM (inactive) | 17.6 µM (inactive) | 25.6 µM (inactive) | 21.1 µM (inactive) | 14.1 µM (inactive) | 5.9 µM (inactive) | 14 µM (inactive) | 14.4 µM (inactive) | 13.7 µM (inactive) | 18.3 µM (inactive) | 13.9 µM (inactive) |  |  |  |
| COC(=O)CCC(=O)CC1CC(=O)C2CCCN12 (configuration not stated) | > 100 µM (inactive) | > 100 µM (inactive) | > 100 µM (inactive) | > 100 µM (inactive) | > 100 µM (inactive) | > 100 µM (inactive) | > 100 µM (inactive) | > 100 µM (inactive) | > 100 µM (inactive) | > 100 µM (inactive) | > 100 µM (inactive) | > 100 µM (inactive) | > 100 µM (inactive) | > 100 µM (inactive) | > 100 µM (inactive) | > 100 µM (inactive) | > 100 µM (inactive) |  |  |  |
| Cn1cnc(S[C@H]2[C@H]3C(=O)C=C4S[C@H]5C[C@]42C2=C(N5)C(=O)c4[nH]cc5c4C2=[N+]3CC5)c1C[C@H](N)C(=O)O | 15.4 µM (inactive) | 13.4 µM (inactive) | 27.5 µM (inactive) | 16.5 µM (inactive) | 18.9 µM (inactive) | 4.47 µM (inactive) | 16.8 µM (inactive) | 18.8 µM (inactive) | 3.72 µM (inactive) | 12.1 µM (inactive) | 2.11 µM (inactive) | 12.7 µM (inactive) | 17.3 µM (inactive) | 3.7 µM (inactive) | 12.7 µM (inactive) | 18.7 µM (inactive) | 14.1 µM (inactive) |  |  |  |
